Results on 6 molecules are retold here after ChEMBL document CHEMBL4431395, “Cellular Activity of New Small Molecule Protein Arginine Deiminase 3 (PAD3) Inhibitors” (ACS Med Chem Lett, 2016).

One may read the IC50 as the point on the concentration scale where inhibition reaches its midpoint.

Test [1] deals with Protein-arginine deiminase type-2 (Homo sapiens, UniProt Q9Y2J8). The test can be described thus: Inhibition of recombinant human 6His-tagged PAD2 assessed as reduction in residual activity preincubated for 15 mins followed by addition of N-benzoylated arginine ethyl ester hydrochloride measured after 15 mins by colder assay.
Test [2] has as its target T1, Protein-arginine deiminase type-1 (Homo sapiens, UniProt Q9ULC6).
T1 sequence (Q9ULC6 whole entry): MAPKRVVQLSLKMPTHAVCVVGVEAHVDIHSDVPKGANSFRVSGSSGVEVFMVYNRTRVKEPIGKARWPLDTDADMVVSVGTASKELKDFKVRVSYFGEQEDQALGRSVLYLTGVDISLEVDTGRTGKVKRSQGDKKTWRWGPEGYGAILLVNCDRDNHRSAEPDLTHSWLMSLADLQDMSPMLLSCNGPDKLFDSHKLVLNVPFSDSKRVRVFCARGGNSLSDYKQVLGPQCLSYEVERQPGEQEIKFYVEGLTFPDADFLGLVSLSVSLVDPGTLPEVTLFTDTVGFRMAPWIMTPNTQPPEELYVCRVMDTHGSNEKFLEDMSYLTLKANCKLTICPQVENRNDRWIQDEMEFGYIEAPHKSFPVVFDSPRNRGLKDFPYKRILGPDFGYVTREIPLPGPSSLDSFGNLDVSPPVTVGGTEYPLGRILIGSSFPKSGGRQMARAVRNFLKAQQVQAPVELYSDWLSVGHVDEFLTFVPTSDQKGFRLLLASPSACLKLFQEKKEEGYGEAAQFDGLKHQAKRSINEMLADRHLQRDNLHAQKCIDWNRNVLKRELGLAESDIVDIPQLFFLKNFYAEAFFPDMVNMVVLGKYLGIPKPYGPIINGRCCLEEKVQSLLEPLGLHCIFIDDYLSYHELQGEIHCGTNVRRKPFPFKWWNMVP
The test can be described thus: Inhibition of recombinant human 6His-tagged PAD1 assessed as reduction in residual activity preincubated for 15 mins followed by addition of N-benzoylated arginine ethyl ester hydrochloride measured after 15 mins by colder assay.

For test [3], the target named is Protein-arginine deiminase type-4 (Homo sapiens, UniProt Q9UM07). In words: Inhibition of recombinant human GST-tagged PAD4 expressed in Escherichia coli BL21-DE3 pLysS assessed as reduction in reduction in residual activity preincubated for 15 mins followed by addition of N-benzoylated arginine ethyl ester hydrochloride measured after 15 mins by colder assay.
Protein-arginine deiminase type-4, sequence (Q9UM07 whole entry): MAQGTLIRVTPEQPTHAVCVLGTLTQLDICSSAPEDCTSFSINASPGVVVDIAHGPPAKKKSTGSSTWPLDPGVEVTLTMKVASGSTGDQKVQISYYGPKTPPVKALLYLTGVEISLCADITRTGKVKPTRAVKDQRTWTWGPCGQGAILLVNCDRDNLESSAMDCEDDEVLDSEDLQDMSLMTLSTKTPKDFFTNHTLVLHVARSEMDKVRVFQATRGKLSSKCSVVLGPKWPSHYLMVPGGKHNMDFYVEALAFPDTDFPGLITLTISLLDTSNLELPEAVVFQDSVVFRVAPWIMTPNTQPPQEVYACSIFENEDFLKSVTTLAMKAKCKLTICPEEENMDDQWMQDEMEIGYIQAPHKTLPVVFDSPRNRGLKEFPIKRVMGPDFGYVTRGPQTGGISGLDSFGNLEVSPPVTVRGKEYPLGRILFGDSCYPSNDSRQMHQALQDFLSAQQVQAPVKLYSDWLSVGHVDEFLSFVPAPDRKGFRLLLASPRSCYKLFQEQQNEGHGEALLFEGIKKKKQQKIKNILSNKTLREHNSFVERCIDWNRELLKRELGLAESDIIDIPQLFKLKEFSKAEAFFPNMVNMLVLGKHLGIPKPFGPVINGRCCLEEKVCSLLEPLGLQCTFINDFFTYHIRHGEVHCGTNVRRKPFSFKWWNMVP

Protein-arginine deiminase type-2, sequence (Q9Y2J8 whole entry): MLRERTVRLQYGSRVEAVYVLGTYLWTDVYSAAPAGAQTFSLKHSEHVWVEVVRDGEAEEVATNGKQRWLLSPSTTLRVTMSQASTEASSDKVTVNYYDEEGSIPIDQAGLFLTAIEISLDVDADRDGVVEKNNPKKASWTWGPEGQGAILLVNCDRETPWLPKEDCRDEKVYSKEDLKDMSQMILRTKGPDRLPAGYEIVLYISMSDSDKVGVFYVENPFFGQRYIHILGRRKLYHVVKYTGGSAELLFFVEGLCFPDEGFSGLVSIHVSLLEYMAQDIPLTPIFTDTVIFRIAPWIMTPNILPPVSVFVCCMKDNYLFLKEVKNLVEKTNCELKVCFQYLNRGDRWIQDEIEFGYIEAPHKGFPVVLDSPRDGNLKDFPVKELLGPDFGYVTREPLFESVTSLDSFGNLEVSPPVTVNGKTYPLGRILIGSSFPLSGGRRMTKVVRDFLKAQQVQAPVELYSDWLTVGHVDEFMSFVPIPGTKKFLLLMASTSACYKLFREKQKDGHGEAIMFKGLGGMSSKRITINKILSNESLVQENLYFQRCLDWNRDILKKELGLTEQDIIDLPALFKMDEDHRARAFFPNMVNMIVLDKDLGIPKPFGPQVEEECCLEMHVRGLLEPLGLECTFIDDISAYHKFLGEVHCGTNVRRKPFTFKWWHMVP

In the case of `N=C(CCl)NCCOC(=O)NCc1cccc(-c2ccccc2)c1`, the IC50 in test [1] is 151 µM; in test [2], over 500 µM.
Turning to `N=C(CCl)NCCCc1nc(Cl)c(-c2cccc(-c3ccccc3)c2)[nH]1`, the IC50 in test [2] stood at 161 µM.
As to `N=C(CCl)NCCNC(=O)NCc1cccc(-c2ccccc2)c1`, the figures for the IC50 in test [3] and in test [1] were 129 µM and 140 µM, respectively.
In the case of `N=C(CCl)NC/C=C/C(=O)NCc1cccc(-c2ccccc2)c1`, in test [2], the IC50 worked out at 125 µM.
Turning to `N=C(CCl)NCC#CC(=O)NCc1cccc(-c2ccccc2)c1`, the IC50 is 153 µM in test [1] and 408 µM in test [2].
For `N=C(CCl)NCCCc1cn(-c2cccc(-c3ccccc3)c2)nn1`, in that order: 110 µM and 294 µM.
